Measured values as given in ChEMBL document CHEMBL1201862, “PubChem BioAssay data set” (2004).
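Compound exposure: 48 hours, 5 concentrations, 96-well plates. At the GI50, growth is halved.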 The source made the active and inactive calls. Cut-off read from the data, not from the text of the source: active = GI50 up to about 1.1 µM and inactive = higher.

Key:
Assay in all cases: DTP human tumour cell line panel, 48 h
SNB-75 = tested on: SNB-75
A498 = tested on: A498
SNB-19 = tested on: SNB-19
HCT-15 = tested on: HCT-15
SF-268 = tested on: SF-268
IGROV-1 = tested on: IGROV-1
Malme-3M = tested on: Malme-3M
OVCAR-8 = tested on: OVCAR-8
MOLT-4 = tested on: MOLT-4
SK-OV-3 = tested on: SK-OV-3
MDA-N = tested on: MDA-N
MDA-MB-231 = tested on: MDA-MB-231
HOP-62 = tested on: HOP-62
HCC 2998 = tested on: HCC 2998
CAKI-1 = tested on: CAKI-1
MDA-MB-435 = tested on: MDA-MB-435
UACC-62 = tested on: UACC-62
TK-10 = tested on: TK-10
HL-60 = tested on: HL-60

Compound	GI50 (SNB-75)	GI50 (A498)	GI50 (SNB-19)	GI50 (HCT-15) [µM]	GI50 (SF-268)	GI50 (IGROV-1)	GI50 (Malme-3M)	GI50 (OVCAR-8)	GI50 (MOLT-4)	GI50 (SK-OV-3)	GI50 (MDA-N)	GI50 (MDA-MB-231)	GI50 (HOP-62)	GI50 (HCC 2998)	GI50 (CAKI-1)	GI50 (MDA-MB-435)	GI50 (UACC-62)	GI50 (TK-10)	GI50 (HL-60)
CSc1cc(Cl)c(C)cc1S(=O)(=O)NC(=O)NNc1ccc(F)c(Cl)c1	> 100 µM (inactive)	> 100 µM (inactive)	> 100 µM (inactive)	> 100	> 100 µM (inactive)	> 100 µM (inactive)	> 100 µM (inactive)	> 100 µM (inactive)	45.7 µM (inactive)	> 100 µM (inactive)	> 100 µM (inactive)	> 100 µM (inactive)	> 100 µM (inactive)	> 100 µM (inactive)	> 100 µM (inactive)	> 100 µM (inactive)			
COc1cc(OC)cc(N(C)Cc2cnc3nc(N)nc(N)c3c2C)c1	0.0571 µM (active)	18.7 µM (inactive)	12.9 µM (inactive)	1.27	0.745 µM (active)	0.838 µM (active)	0.817 µM (active)	0.741 µM (active)	0.741 µM (active)	13.6 µM (inactive)	0.631 µM (active)	21.3 µM (inactive)	0.995 µM (active)	3.52 µM (inactive)	2.04 µM (inactive)	0.759 µM (active)	0.719 µM (active)		
CC(Cn1c(=O)oc2ccccc21)N(C)C (stereo not given)	> 100 µM (inactive)	> 100 µM (inactive)	> 100 µM (inactive)	> 100	> 100 µM (inactive)	> 100 µM (inactive)	> 100 µM (inactive)	> 100 µM (inactive)	> 100 µM (inactive)	> 100 µM (inactive)	> 100 µM (inactive)	> 100 µM (inactive)	> 100 µM (inactive)		> 100 µM (inactive)	> 100 µM (inactive)	> 100 µM (inactive)	> 100 µM (inactive)	> 100 µM (inactive)
Cc1cc(N2CCOCC2)nc2ccc(Cc3ccc4nc(N5CCOCC5)cc(C)c4c3)cc12	35.2 µM (inactive)	59.4 µM (inactive)	49.9 µM (inactive)	41.8	> 100 µM (inactive)	> 100 µM (inactive)	51.1 µM (inactive)	57.5 µM (inactive)	28.8 µM (inactive)	> 100 µM (inactive)	36.6 µM (inactive)	> 100 µM (inactive)	> 100 µM (inactive)	15.6 µM (inactive)	> 100 µM (inactive)	43.3 µM (inactive)	45.8 µM (inactive)	29.4 µM (inactive)	
OCCN(C1=NCCN1)/[N+](=C/c1ccc(Cl)cc1)[CH-]c1ccc(Cl)cc1	> 100 µM (inactive)		> 100 µM (inactive)	61.8	> 100 µM (inactive)	> 100 µM (inactive)	> 100 µM (inactive)	> 100 µM (inactive)	26.5 µM (inactive)	> 100 µM (inactive)	> 100 µM (inactive)	> 100 µM (inactive)	> 100 µM (inactive)	29.4 µM (inactive)	> 100 µM (inactive)	> 100 µM (inactive)	> 100 µM (inactive)	> 100 µM (inactive)	
C[n+]1c2ccccc2n2c3ccccc3c(NCCc3ccccn3)c(C#N)c21	1.38 µM (inactive)	4.4 µM (inactive)	3.33 µM (inactive)	2.33	2.36 µM (inactive)		2.81 µM (inactive)	1.18 µM (inactive)	1 µM (active)	3.4 µM (inactive)	1.64 µM (inactive)	1.42 µM (inactive)	2.11 µM (inactive)		1.98 µM (inactive)	1.47 µM (inactive)	2.53 µM (inactive)	1.14 µM (inactive)	3.13 µM (inactive)
N=C(N)N/N=C/c1ccc(O)c(C(=O)O)c1	3.22 µM (inactive)	> 100 µM (inactive)	> 100 µM (inactive)	> 100	> 100 µM (inactive)	> 100 µM (inactive)	99.1 µM (inactive)	> 100 µM (inactive)	> 100 µM (inactive)	> 100 µM (inactive)	> 100 µM (inactive)	> 100 µM (inactive)	> 100 µM (inactive)	> 100 µM (inactive)	> 100 µM (inactive)	> 100 µM (inactive)	> 100 µM (inactive)	> 100 µM (inactive)	
c1ccc2nn(C3CCCCO3)nc2c1 (stereo not given)	> 100 µM (inactive)		> 100 µM (inactive)	> 100	> 100 µM (inactive)	> 100 µM (inactive)	> 100 µM (inactive)	> 100 µM (inactive)	> 100 µM (inactive)	> 100 µM (inactive)	> 100 µM (inactive)	> 100 µM (inactive)	> 100 µM (inactive)	> 100 µM (inactive)	> 100 µM (inactive)	> 100 µM (inactive)	> 100 µM (inactive)	> 100 µM (inactive)	
N#Cc1c2c(c(N3CCOCC3)n3c1nc1ccccc13)CCCC2		19 µM (inactive)	16.6 µM (inactive)	17.8	> 100 µM (inactive)	16.6 µM (inactive)	17.7 µM (inactive)	19.2 µM (inactive)	8.81 µM (inactive)	22.6 µM (inactive)	18.4 µM (inactive)	21.3 µM (inactive)		21.8 µM (inactive)	19.1 µM (inactive)	20.2 µM (inactive)	22.3 µM (inactive)	23.1 µM (inactive)	13.8 µM (inactive)
O=C1CSc2nc3ccccc3n2/C=N\N1		> 100 µM (inactive)	> 100 µM (inactive)	> 100	> 100 µM (inactive)			> 100 µM (inactive)	> 100 µM (inactive)	> 100 µM (inactive)	> 100 µM (inactive)	> 100 µM (inactive)		> 100 µM (inactive)	> 100 µM (inactive)	> 100 µM (inactive)	> 100 µM (inactive)	> 100 µM (inactive)	
Cc1nc2c(=O)[nH]ncc2[nH]1	0.968 µM (active)	> 100 µM (inactive)	> 100 µM (inactive)	> 100	> 100 µM (inactive)	> 100 µM (inactive)		> 100 µM (inactive)	> 100 µM (inactive)		> 100 µM (inactive)	> 100 µM (inactive)	> 100 µM (inactive)		> 100 µM (inactive)	> 100 µM (inactive)	> 100 µM (inactive)	> 100 µM (inactive)	64 µM (inactive)
N#CC(NCCc1ccccc1)c1ccccc1 (stereo not given)	> 100 µM (inactive)		> 100 µM (inactive)	> 100	> 100 µM (inactive)	> 100 µM (inactive)	> 100 µM (inactive)	> 100 µM (inactive)	> 100 µM (inactive)	> 100 µM (inactive)	> 100 µM (inactive)	> 100 µM (inactive)	> 100 µM (inactive)	> 100 µM (inactive)	> 100 µM (inactive)	> 100 µM (inactive)	> 100 µM (inactive)	> 100 µM (inactive)	> 100 µM (inactive)
CC(NS(C)(=O)=O)c1ccccc1 (stereo not given)	> 100 µM (inactive)		> 100 µM (inactive)	> 100		> 100 µM (inactive)	> 100 µM (inactive)	> 100 µM (inactive)	> 100 µM (inactive)	> 10 µM (inactive)	> 100 µM (inactive)	> 100 µM (inactive)	> 100 µM (inactive)	> 100 µM (inactive)	> 100 µM (inactive)	> 100 µM (inactive)	> 100 µM (inactive)	> 100 µM (inactive)	> 100 µM (inactive)
CN1CCN(C(=S)N(C)C(=O)c2cccs2)CC1			> 100 µM (inactive)	> 100		> 100 µM (inactive)	> 100 µM (inactive)	> 100 µM (inactive)	> 100 µM (inactive)		> 100 µM (inactive)	> 100 µM (inactive)		> 100 µM (inactive)		> 100 µM (inactive)	> 100 µM (inactive)	> 100 µM (inactive)	
OCC1C2CCC3(OCCO3)C12 (stereo not given)	> 100 µM (inactive)		> 100 µM (inactive)	> 100	> 100 µM (inactive)	> 100 µM (inactive)	57.3 µM (inactive)	> 100 µM (inactive)	> 100 µM (inactive)	> 100 µM (inactive)	> 100 µM (inactive)	> 100 µM (inactive)	> 100 µM (inactive)	> 100 µM (inactive)	> 100 µM (inactive)	> 100 µM (inactive)	17.6 µM (inactive)	> 100 µM (inactive)	
CC(C)c1ccc2c(c1)/C(=C1/Nc3ccccc3C1=O)C(=O)N2	3.4 µM (inactive)	2.34 µM (inactive)	13 µM (inactive)	36.5	15.3 µM (inactive)	1.45 µM (inactive)	46.8 µM (inactive)	10.6 µM (inactive)	22.1 µM (inactive)	3.75 µM (inactive)	28.8 µM (inactive)	5.85 µM (inactive)	4.57 µM (inactive)	19.2 µM (inactive)	14.3 µM (inactive)	25.8 µM (inactive)	14.9 µM (inactive)	5.01 µM (inactive)	
COC(=O)C1=C(O)C(C(=O)OC)[C@@]2(O)[C@@H](C(=O)OC)C(c3ccc(OC(=O)/C(=C/c4ccc(Cl)cc4)c4ccc(Cl)cc4)cc3)C[C@@H]1[C@@H]2C(=O)OC (stereo not given in full)	28.3 µM (inactive)	> 100 µM (inactive)	61.9 µM (inactive)	18.5	99.3 µM (inactive)	20.2 µM (inactive)	55.7 µM (inactive)	41 µM (inactive)	4.45 µM (inactive)	> 100 µM (inactive)	17.5 µM (inactive)	19.1 µM (inactive)	> 100 µM (inactive)		15.9 µM (inactive)	23.5 µM (inactive)	7.29 µM (inactive)	16.1 µM (inactive)	34.6 µM (inactive)
